Data on 4 molecules can be found in publication PMC6133161, “Thiazoles with cyclopropyl fragment as antifungal, anticonvulsant, and anti-Toxoplasma gondii agents: synthesis, toxicity evaluation, and molecular docking study” (Medicinal Chemistry Research, 2018).

SMILES strings stand for the structures.

Common to all, as to format: in vivo, mouse
Data set [1] deals with PTZ-induced clonic seizures. Description: PTZ seizure test. The following applies: mice, ip, 60 min before PTZ 100 mg/kg sc; for latency time to first clonus / number of seizure episodes: vs vehicle. As to the method:
For in vivo tests that assessed anticonvulsant properties of the test compounds 3a–3j adult male Albino Swiss (CD-1) mice weighing between 18 and 22 g were used. The animals were housed in groups of ten mice per cage at room temperature of 22 ± 2 °C, under light/dark (12:12) cycle. The animals had free access to food and tap water before the experiments. The ambient temperature of the experimental room and humidity (50 ± 10%) were kept consistent throughout all the tests. For behavioral experiments the animals were selected randomly. Each experimental group consisted of 4–8 animals/dose. The experiments were performed between 9 AM and 2 PM. Immediately after the in vivo assay the animals were euthanized by cervical dislocation. All procedures were approved by the Local Ethics Committee of the Jagiellonian University in Krakow (34/2018, 1.02.2018)) and the treatment of animals was in full accordance with ethical standards laid down in respective Polish and EU regulations (Directive No. 86/609/EEC). For in vivo tests the compounds 3a–3j were prepared in 1% Tween 80 solution (POCH, Poland) and they were administered by the intraperitoneal route. Control mice received 1% Tween 80. Pentylenetetrazole (PTZ), pilocarpine hydrochloride and scopolamine butylbromide were provided by Sigma Aldrich (Poland). For the tests they were prepared in 0.9% saline (Polfa Kutno, Poland). PTZ and pilocarpine were administered 60 min after the test compound or vehicle. To assess anticonvulsant properties of the test compounds anticonvulsant screening was conducted. Four assays were used: PTZ, maximal electroshock seizure (MES), 6-Hz and pilocarpine tests. In these assays the dose of 100 mg/kg was chosen as a starting dose. If it turned out to be effective, a lower dose (30 mg/kg) was also tested. The test was performed according to a method previously described (Sałat et al. [2005]). Clonic convulsions were induced by the subcutaneous (sc) administration of PTZ at a dose of 100 mg/kg. After PTZ injection, each mouse was immediately placed in a transparent Plexiglas cage (30 × 20 × 15 cm) and was observed during the next 30 min for the occurrence of clonic seizures. Clonic seizures were defined as clonus of the whole body lasting more than 3 s, with an accompanying loss of righting reflex. Latency time to first clonus and the number of seizure episodes were noted and compared between vehicle-treated and drug-treated groups.

A further data set deals with motor coordination. In words: Rotarod test. To be noted: mice, 100 mg/kg, 60 min pretreatment; 6, 18 and 24 rpm. The protocol:
For in vivo tests that assessed anticonvulsant properties of the test compounds 3a–3j adult male Albino Swiss (CD-1) mice weighing between 18 and 22 g were used. The animals were housed in groups of ten mice per cage at room temperature of 22 ± 2 °C, under light/dark (12:12) cycle. The animals had free access to food and tap water before the experiments. The ambient temperature of the experimental room and humidity (50 ± 10%) were kept consistent throughout all the tests. For behavioral experiments the animals were selected randomly. Each experimental group consisted of 4–8 animals/dose. The experiments were performed between 9 AM and 2 PM. Immediately after the in vivo assay the animals were euthanized by cervical dislocation. All procedures were approved by the Local Ethics Committee of the Jagiellonian University in Krakow (34/2018, 1.02.2018)) and the treatment of animals was in full accordance with ethical standards laid down in respective Polish and EU regulations (Directive No. 86/609/EEC). For in vivo tests the compounds 3a–3j were prepared in 1% Tween 80 solution (POCH, Poland) and they were administered by the intraperitoneal route. Control mice received 1% Tween 80. Pentylenetetrazole (PTZ), pilocarpine hydrochloride and scopolamine butylbromide were provided by Sigma Aldrich (Poland). For the tests they were prepared in 0.9% saline (Polfa Kutno, Poland). PTZ and pilocarpine were administered 60 min after the test compound or vehicle. To assess anticonvulsant properties of the test compounds anticonvulsant screening was conducted. Four assays were used: PTZ, maximal electroshock seizure (MES), 6-Hz and pilocarpine tests. In these assays the dose of 100 mg/kg was chosen as a starting dose. If it turned out to be effective, a lower dose (30 mg/kg) was also tested. The test was performed according to the method recently described (Sałat et al. [2005]). The mice were trained daily for 3 consecutive days on the rotarod apparatus (Rotarod apparatus, May Commat RR0711, Turkey; rod diameter: 2 cm) rotating at a constant speed of 18 rotations per minute (rpm). During each training session, the animals were placed on a rotating rod for 3 min with an unlimited number of trials. The proper experimentation was conducted 24 h after the final training trial. […] Motor impairments, defined as the inability to remain on the rotating rod for 1 min were measured and mean time spent on the rod was counted in each experimental group.

Data set [2] concerns pilocarpine-induced status epilepticus. In words: Pilocarpine-induced seizures. To be noted: mice, 100 mg/kg ip, pilocarpine 400 mg/kg ip; post-hoc vs vehicle. The protocol:
For in vivo tests that assessed anticonvulsant properties of the test compounds 3a–3j adult male Albino Swiss (CD-1) mice weighing between 18 and 22 g were used. The animals were housed in groups of ten mice per cage at room temperature of 22 ± 2 °C, under light/dark (12:12) cycle. The animals had free access to food and tap water before the experiments. The ambient temperature of the experimental room and humidity (50 ± 10%) were kept consistent throughout all the tests. For behavioral experiments the animals were selected randomly. Each experimental group consisted of 4–8 animals/dose. The experiments were performed between 9 AM and 2 PM. Immediately after the in vivo assay the animals were euthanized by cervical dislocation. All procedures were approved by the Local Ethics Committee of the Jagiellonian University in Krakow (34/2018, 1.02.2018)) and the treatment of animals was in full accordance with ethical standards laid down in respective Polish and EU regulations (Directive No. 86/609/EEC). For in vivo tests the compounds 3a–3j were prepared in 1% Tween 80 solution (POCH, Poland) and they were administered by the intraperitoneal route. Control mice received 1% Tween 80. Pentylenetetrazole (PTZ), pilocarpine hydrochloride and scopolamine butylbromide were provided by Sigma Aldrich (Poland). For the tests they were prepared in 0.9% saline (Polfa Kutno, Poland). PTZ and pilocarpine were administered 60 min after the test compound or vehicle. To assess anticonvulsant properties of the test compounds anticonvulsant screening was conducted. Four assays were used: PTZ, maximal electroshock seizure (MES), 6-Hz and pilocarpine tests. In these assays the dose of 100 mg/kg was chosen as a starting dose. If it turned out to be effective, a lower dose (30 mg/kg) was also tested. In this test the mice were pretreated with the investigated compound or vehicle and 60 min later they received pilocarpine (400 mg/kg, ip). To avoid cholinergic side-effects: peripheral toxicity and diarrhea, masticatory and stereotyped movements, animals treated with pilocarpine also received scopolamine butylbromide (1 mg/kg, ip) which was injected 45 min before pilocarpine. After the administration of the convulsant, the mice were observed during the next 60 min for behavioral changes. Latency time to the onset of status epilepticus was considered as the endpoint in this test (Wilhelm et al. [2010]).

Regarding `Clc1ccc(-c2csc(N/N=C/C3CC3)n2)cc1` [Compound 3c, (E)-4-(4-Chlorophenyl)-2-(2-(cyclopropylmethylene)hydrazinyl)thiazole], the “anticonvulsant activity in PTZ model” value in data set [1] is on record as “not effective”. Moreover, the “motor coordination (time spent on rotarod)” value (“motor coordination” for short) with motor coordination is reported as “None of these compounds impaired motor skills”. In addition, the “latency time to pilocarpine-induced status epilepticus” value in data set [2] is listed as “did not show statistically significant anticonvulsant effects”.

Take `FC(F)(F)c1ccc(-c2csc(N/N=C/C3CC3)n2)cc1` [Compound 3e, (E)-2-(2-(Cyclopropylmethylene)hydrazinyl)-4-(4-(trifluoromethyl)phenyl)thiazole]: the “anticonvulsant activity in PTZ model” value in data set [1] is “not effective”. Besides, the “motor coordination” value in the data set on motor coordination is listed as “None of these compounds impaired motor skills”. Also, in data set [2], the “latency time to pilocarpine-induced status epilepticus” value is given as “did not show statistically significant anticonvulsant effects”.

For the molecule `COc1ccc(-c2csc(N/N=C/C3CC3)n2)cc1` [Compound 3f, (E)-2-(2-(Cyclopropylmethylene)hydrazinyl)-4-(4-methoxyphenyl)thiazole], in data set [1], the “latency time to first clonus” value was “significantly prolonged” and the “number of seizure episodes” value is on record as “reduced”. Also, the “motor coordination” value in the data set on motor coordination is listed as “None of these compounds impaired motor skills”. Moreover, in data set [2], the “latency time to pilocarpine-induced status epilepticus” value is given as “did not show statistically significant anticonvulsant effects”.

For `[N-]=[N+]=Nc1ccc(-c2csc(N/N=C/C3CC3)n2)cc1` [Compound 3i, (E)-4-(4-Azidophenyl)-2-(2-(cyclopropylmethylene)hydrazinyl)thiazole], in data set [1], the “latency time to first clonus” value is “significantly prolonged” and the “number of seizure episodes” value is “reduced”. Further, the “motor coordination” value in the data set on motor coordination is on record as “None of these compounds impaired motor skills”. Moreover, the “latency time to pilocarpine-induced status epilepticus” value in data set [2] was “did not show statistically significant anticonvulsant effects”.
